Values belong to the compound of their own block, whether it stands above or below them.
Experiments:
[1] = tested on: HCC827 xenograft tumors
Description: (§1) Tumorigenesis assays. Human lung cancer cells (as indicated) were injected subcutaneously into the flanks of CB17 SCID mice (Taconic). […] Tumor measurements were made on days indicated and expressed as described in the descriptions of the drawings. All animal experiments were performed in compliance with the guidelines of the Research Animal Resource Center of the Memorial Sloan-Kettering Cancer Center.

[2] = tested on: H3255 cells; assay: Cell viability, parental H3255 cells; assay type: cell-based; conditions: Homo sapiens, NCI-H3255, read-out: erlotinib IC50, EGFR L858R
Description: (§8) Cell growth and viability assays. Cells were seeded at a density of 3000 cells/well in 96-well plates in RPMI 1640 containing 10% FBS overnight, then treated with respective agents for an additional 3 days. Viable cell numbers were determined using CellTiterGLO or MTS assay kit, as indicated in the descriptions of the drawings, according to the manufacturer's protocols (Promega, Madison, Wis., USA). Each assay consisted of 3 replicate wells and was repeated at least twice. Data were expressed as the percentage survival of control calculated from the absorbance, corrected for background.

[3] = tested on: HCC827 ER1 tumors; assay: HCC827 ER1 xenograft tumors treated with erlotinib; assay type: in vivo, mice; conditions: ER1 tumors transduced with non-target shRNA, 12.5 mg/kg/day
Description: as §1

[4] = tested on: parental HCC827 cells; assay: Western blot of signaling biomarkers, parental HCC827 cells; assay type: cell-based, human; conditions: erlotinib 100 nM
Description: (§2) Western blot analysis. Cells were serum starved overnight and whole cell lysates were prepared using 10% TCA lysis or RIPA buffer and clarified by centrifugation. Proteins were separated by 10% SDS-PAGE gel and transferred onto PVDF membranes (Invitrogen) for Western blot analysis. After primary antibody incubation overnight, washing and incubation with secondary antibodies, blots were developed with a chemiluminescence system (Pierce).

[5] = tested on: PC9 cells; assay: Cell viability (CellTiterGLO), PC9 cells; assay type: cell-based; conditions: Homo sapiens, PC-9, read-out: erlotinib IC50, EGFR exon 19-deletion mutant
From the text: (§3) To address these questions, we generated cDNA constructs that encode either wild type (WT) AXL or a kinase-impaired mutant of AXL in which a key conserved lysine within the kinase domain was changed to arginine (K567R).
(§4) Cell growth and viability assays.

[6] = tested on: HCC827 ER1 and ER2 cells; assay: Western blot of signaling biomarkers, HCC827 ER1 and ER2 cells; assay type: cell-based, human; conditions: for erlotinib effects (decreased pEGFR, pERK, pAKT, pRelA, increased cleaved Parp) with concurrent AXL inhibitor: concurrent treatment with erlotinib, 48 h
Description: as §2

[7] = tested on: H3255 ER sublines; assay: Cell viability, erlotinib-resistant H3255 ER sublines; assay type: cell-based, human; conditions: for effect on sensitivity to concurrent erlotinib treatment: H3255 ER sublines
From the text: Establishment of erlotinib-resistant subclones.
as §4

[8] = tested on: HCC827 tumors; assay: Western blot of signaling biomarkers in HCC827 xenograft tumors; assay type: in vivo, mice
Description: as §2, §1

[9] = tested on: ER4 cells; assay: Apoptosis by PARP cleavage and BIM induction in ER4 cells; assay type: cell-based, human; conditions: 24 hour exposure; AD57 1 micromolar, AD80 1 micromolar
Description: FIG. 22. Induction of apoptosis by combined EGFR and AXL inhibition. […] 24-hour drug exposure. Apoptosis measured by induction of PARP cleavage and BIM induction.

[10] = tested on: HCC827 ER1-ER5 sublines; assay: Cell viability assay (CellTiterGLO), erlotinib resistant HCC827 ER1-ER5 sublines; conditions: for effect of single-agent treatment on cell viability: 1 μM alone, HCC827 ER cells; for effect on sensitivity to concurrent erlotinib treatment: AXL inhibitor 1 μM plus erlotinib, each ER subline
Description: as §8

[11] = tested on: parental HCC827 cells; assay: Migration and adhesion, parental HCC827 cells; assay type: cell-based, human; conditions: XL-880 1 μM (FIG. 4c-d)
Description: (§5) [Vuoriluoto, K. et al. Oncogene 30, 1436-1448 (2011)] […] Together, the data support a possible role for an EMT that is marked by vimentin overexpression in the development of acquired EGFR TKI resistance that is driven by AXL in this model of human EGFR mutant lung cancer.
(§6) Migration and adhesion studies. 180,000 cells were plated onto 3.5 cm cell culture dishes. At 30 minutes, the dishes were washed and cells were fixed and stained for counting. Average cell numbers of 5 random 100× fields under light microscope are presented with ±SEM. Migration: 10,000 cells in 200 μl medium without FBS were placed in the upper chamber of transwells (6.5 mm diameter, 8 μm pore size polycarbonate membrane, Corning), and the lower chamber filled with 1 ml of medium with 10% FBS supplemented with or without the indicated drug treatments. After incubation for 16 hours, non-migrating cells were removed with cotton swabs, and the cells that migrated into the lower surface of the filters were stained with crystal violet. Cells were counted under a microscope, and triplicate results are expressed as means±SEM.

[12] = tested on: HCC827 cells; assay: Cell viability assay (CellTiterGLO), parental HCC827 cells; conditions: 1 μM alone
Description: Cell lines and reagents. The human lung cancer cell lines were purchased from the American Type Culture Collection except for H3255, PC-9 cells were generously provided. Cells were grown in RPMI 1640 supplemented with 10% FBS and 1× Antibiotic/Antimycotic (Invitrogen) and were in the logarithmic growth phase at the initiation of all experiments. […] Drugs were dissolved in DMSO at 10 mM and stored at −20° C. The final DMSO concentration in all experiments was <0.1% in medium. All antibodies were purchased from Cell Signaling (Boston, Mass.) except the anti-AXL and anti-phospho-AXL and anti-GAS6 antibodies, which were purchased from R&D Systems (Minneapolis, Minn.).
as §8

[13] = tested on: HCC827 ER3 cells; assay: Migration and adhesion, HCC827 ER3 cells; assay type: cell-based, human; conditions: XL-880 1 μM (FIG. 4c-d)
Description: as §5, §6

[14] = tested on: HCC827 cells expressing AXL constructs; assay: Viability of HCC827 cells expressing AXL cDNA constructs; assay type: cell-based, human
From the text: as §3, §4
(§7) AXL cDNA and overexpression studies. The AXL gene with an HA tag at the C-terminus was amplified by overlapping PCR using cDNA generated from ER3 cells and cloned into pcDNA3.1 (+) vector. Amino acid changes (K567R or L620M) were introduced using the Strategene QuickChange Mutagenesis Kit, according to the manufacturer's protocol. The accuracy of the constructs was confirmed by DNA sequencing. Cells were transfected with the AXL-expressing vectors or empty vector as a control by using FuGENE HD reagent according to the manufacturer's protocol (Roche Applied Sciences, Indianapolis, Ind., USA). Stable HCC827 subclones resistant to the selection antibiotic, 500 μg/ml G418 were generated 24 hours post-transfection. Empty-vector expressing HCC827 cells were generated as a control. AXL protein expression was detected by using anti-HA probe (Santa Cruz Biotechnology).

[15] = tested on: AXL; assay: pAXL western blot in HCC827 cells expressing AXL L620M; assay type: cell-based, human
Description: Cancer research 69, 8009-8016 (2009); Yun, C. H. et al. PNAS 105, 2070-2075 (2008)] (FIG. 18).
as §2, §7

[16] = tested on: HCC827ER cells; assay: Combination index (CI) analysis with erlotinib; assay type: cell-based, human; conditions: ER1 and ER4 sublines; 1:1 ratio; CI < 1 = synergism
From the text: Combination index (CI) analysis. […] The fraction affected (Fa) (i.e., Fa of 0.25 is equivalent to 75% viable cells) and CI values processed using CalcuSyn software (Biosoft, Cambridge, UK). CI values of less than 1, 1, and greater than 1 were taken as synergism, additive effect, and antagonism, respectively.

[17] = ER4 cells, 0.1, 1, 10 micromolar in combination with erlotinib

Structure (SMILES): C#Cc1cccc(Nc2ncnc3cc(OCCOC)c(OCCOC)cc23)c1 [Erlotinib, erlotinib]
- Maximum Volume Reduction (% change from baseline) ([1]; erlotinib 25 mg/kg, 10 tumors per group, average): −69 % change from baseline
- Time to Maximum Volume Reduction (weeks) ([1]; erlotinib 25 mg/kg, median ± SEM): 5 ± 0.2 weeks
- tumor response to erlotinib treatment ([1]; parental HCC827 tumors, 12.5 mg/kg/day): sensitive
- IC50 [2]: ~15 nM
- tumor response to erlotinib treatment [3]: erlotinib-resistant
- effect on pERK, pAKT, pRelA and Parp cleavage [4]: decreased pERK, pAKT and pRelA (a marker of NF-kB signaling) and increased Parp cleavage
- effect on pEGFR ([4]; parental HCC827): decreased pEGFR
- IC50 [5]: ~25 nM
- effect on pEGFR ([6]; erlotinib 100 nM, ER1 and ER2 sublines): decreased pEGFR
- IC50 ([7]; Homo sapiens, NCI-H3255, read-out: erlotinib IC50, 2 isogenic erlotinib-resistant sublines of H3255 (EGFR L858R)): > 1000 nM
- effect on pEGFR, pErbB3 and pMET in tumors ([8]; sensitive tumors at 48 h and resistant tumors at each dose, vs vehicle): decreased levels of pEGFR, pErbB3, and pMET
- effect on pAKT, pERK, pRelA and Parp cleavage in tumors ([8]; sensitive tumors, 48 h treatment, 12.5 mg/kg/day): decreased pAKT, pERK, and pRelA and increased Parp cleavage

Structure (SMILES): CC(C)n1nc(-c2ccc(NC(=O)Nc3cc(C(F)(F)F)ccc3F)cc2)c2c(N)ncnc21 [AD80]
- apoptosis (PARP cleavage and BIM induction) combined with erlotinib [9]: enhances apoptosis
- effect on sensitivity to erlotinib [10, 17]: confer dose-dependent sensitivity to erlotinib

- change of IC50 for XL-880 ([14]; expression of AXL L620M gatekeeper mutant): significantly increased
Structure (SMILES): COc1cc2c(Oc3ccc(NC(=O)C4(C(=O)Nc5ccc(F)cc5)CC4)cc3F)ccnc2cc1OCCCN1CCOCC1 [XL-880, foretinib]
- effect on migration and adhesion [11]: had no effect
- effect of single-agent treatment on cell viability [12]: did not significantly affect the viability
- effect on migration and adhesion [13]: inhibited migration and adhesion
- ability to restore erlotinib sensitivity ([14]; XL-880 1 μM, HCC827 cells expressing AXL L620M): abrogated the ability
- effect on erlotinib resistance induced by overexpression of WT AXL ([14]; XL-880 1 μM, HCC827 cells overexpressing WT AXL): reversed
- ability to decrease pAXL [15]: blocked the ability
- erlotinib effects (decreased pEGFR, pERK, pAKT, pRelA, increased cleaved Parp) with concurrent AXL inhibitor [6]: observed only upon concurrent treatment
- effect on sensitivity to concurrent erlotinib treatment [7]: restored sensitivity to concurrent erlotinib treatment
- effect of single-agent treatment on cell viability [10]: did not significantly affect the viability
- effect on sensitivity to concurrent erlotinib treatment [10]: restored sensitivity to concurrent erlotinib treatment

Structure (SMILES): S=C(NCc1ccc2c(c1)OCO2)N1CCN(c2ncnc3c2oc2ccccc23)CC1 [MP-470, amuvatinib]
- effect of single-agent treatment on cell viability [12]: did not significantly affect the viability
- synergy with concurrent erlotinib treatment (combination index) [16]: synergistic
- erlotinib effects (decreased pEGFR, pERK, pAKT, pRelA, increased cleaved Parp) with concurrent AXL inhibitor [6]: observed only upon concurrent treatment
- effect on sensitivity to concurrent erlotinib treatment [7]: restored sensitivity to concurrent erlotinib treatment
- effect of single-agent treatment on cell viability [10]: did not significantly affect the viability
- effect on sensitivity to concurrent erlotinib treatment [10]: restored sensitivity to concurrent erlotinib treatment

Structure (SMILES): C[C@@H](Oc1cc(-c2cnn(C3CCNCC3)c2)cnc1N)c1c(Cl)ccc(F)c1Cl [Crizotinib, crizotinib]
- effect on sensitivity to erlotinib ([10]; ER cells, at 10 μM, in combination with erlotinib): confers dose-dependent sensitivity to erlotinib

Structure (SMILES): CC(C)n1nc(-c2ccc(NC(=O)Nc3cccc(C(F)(F)F)c3)cc2)c2c(N)ncnc21 [AD57]
- apoptosis (PARP cleavage and BIM induction) combined with erlotinib [9]: enhances apoptosis
- effect on sensitivity to erlotinib [10, 17]: confer dose-dependent sensitivity to erlotinib
